Results on 17 compounds are retold here after US10273272B2, “Antimicrobial peptides” (Amprologix Limited, priority 2014, dated 2019).

Series [1] deals with E. coli. Format: cell-based. The conditions noted are these: for Average MIC: average of triplicate experiments, Table 5. Here is the method: (§1) A series of derivatives of the NI0138-51 (SEQ ID NO:12) truncation were carried out with a view to maintaining stability of the helix and/or increasing net positive charge of the peptides (Table 3). Minimum inhibitory concentrations (MICs) were determined for each derivative against a range of Gram positive and Gram negative organisms by a modified 2-fold microtitre broth dilution method (Wu and Hancock, J Biol Chem 1999; 274: 29-35) (Table 2). […] This could not have been predicted.

For series [2], the system named is Klebsiella (K. pneumoniae). It counts as cell-based. The protocol:
as §1

Series [3] has as its system P. aeruginosa. It counts as cell-based. Here is the method:
as §1

Series [4] relates to S aureus 1195. It counts as cell-based. The protocol: as §1
The subject of series [5] is VISA. Format: cell-based. Here is the method:
as §1

Series [6] has as its system S. Hominis. It counts as cell-based. The protocol:
(§2) Experiments were conducted in which the full-length epidermicin peptide (51 amino acids, SEQ ID NO:10) was truncated to yield the derivatives shown in FIG. 1 (SEQ ID NOs:11 to 19). NI011-37 (SEQ ID NO:11) Is the region most similar to other peptides in the public domain, NI0138-51 (SEQ ID NO:12) is the region that is most unique with respect to other peptides in the public domain. All other truncations have been carried out by removing residues from the amino-terminal end of the peptide to each lysine residue (K). Lysine is important in antimicrobial peptides as it contributes to the net positive charge, which is thought to have a key role in the mode of action of ‘cationic’ peptides, like NI01 (SEQ ID NO:10).

For series [7], the system named is S. aureus 1195. It counts as cell-based. The protocol:
as §2

Series [8] has as its system S. saprophyticus. Format: cell-based. The protocol:
as §2

Series [9] concerns Vanc. resistant Enterococcus. It counts as cell-based. Here is the method:
as §2

In series [10] the test system is N. lactamica. It counts as cell-based. The protocol: as §1
The test system of series [11] is haemolysis. Briefly: Haemolysis assay (in vitro toxicity testing). It counts as cell-based. The following applies: summary of Table 6. Here is the method:
In addition, in vitro toxicity testing (haemolysis assays) indicates a lack of toxicity at levels well above MIC for some peptides, indicating potential for a wide therapeutic window (Table 6). […] Since increased net charge is known to be associated with higher levels of haemolysis, (Dhople and Nagaraj, Peptides 2005: 26: 217-225), this was not wholly unexpected.
Experiments were conducted to assess the percentage haemolysis against peptide concentration for peptides SEQ ID NOs: 4, 5, 6 and 7 against full length epidermicin (SEQ ID NO:10) and SEQ ID NO:12.

In series [12] the test system is MRSA. It counts as cell-based, Staphylococcus aureus. Here is the method:
as §2

Series [13] deals with Gram positive and negative bacteria. The series can be described thus: Antimicrobial activity against drug-resistant pathogens, summary in words. Format: cell-based. The conditions noted are these: summary of Table 2. Here is the method:
as §1

Values after ≈ are worked out from the molar mass of the structure shown. Where two headings read alike, the source gives them in different places. Residues, ends and D or L forms follow the SMILES beside them. No end group written: not given here.

For “SFKWIYKQPKKLWAKKK [SEQ ID NO:23, SFKWIYKQPKKLWAKKK]”, the minimal inhibitory concentration (MIC) is 18.7 µg/mL in [1] (E. coli 50, Table 2); 26.7 µg/mL in series [1] (E. coli 178, Table 2); 13.3 µg/mL in [1] (E. coli DH5α, Table 2); 16 µg/mL in series [1] (E.coli 177, Table 2); over 64 µg/mL in series [2]; over 64 µg/mL in series [3]. In addition, the MIC in [4] was 8 µg/mL; in series [5] it was over 64 µg/mL.

In the case of KWINAGQSFEWIYKQIKKLWA [SEQ ID NO:18], the MIC stood at 6 µg/mL in series [6], 8 µg/mL in [7], 4 µg/mL in [8] and 4 µg/mL in series [9].

As to “SFEWIYKQIKKLWAK [SEQ ID NO:6, SFEWIYKQIKKLWAK]”, the MIC in series [1] (E. coli 50, Table 2) was 4 µg/mL; in [1] (E. coli 178, Table 2), 8 µg/mL; in series [1] (E. coli DH5α, Table 2), 6.7 µg/mL; in series [1] (E.coli 177, Table 2) it was 4 µg/mL; in series [2], 10.7 µg/mL; in series [10], 21.3 µg/mL. Further, the MIC in series [3] was 32 µg/mL; in series [4], 3.3 µg/mL; in series [5] it was over 64 µg/mL. In addition, the “haemolytic activity / toxicity, in words” value in series [11] is “higher levels of haemolytic activity”.

“KYVSLAWKHKGTILKWINAGQSFEWIYKQIKKLWA [SEQ ID NO:15]”: the MIC is 6 µg/mL in [6], 8 µg/mL in [7] and 4 µg/mL in [8].

As to “SFEWIYKQIKKLWAKKK [SEQ ID NO:7, SFEWIYKQIKKLWAKKK]”, the MIC in series [1] (E. coli 50, Table 2) came out at 4.3 µg/mL; in [1] (E. coli 178, Table 2), 3.3 µg/mL; in series [1] (E. coli DH5α, Table 2), 4 µg/mL; in [1] (E.coli 177, Table 2) it was 3 µg/mL; in [10], 37.3 µg/mL; in series [3], 8 µg/mL. In [4], this compound gave an MIC of 1.7 µg/mL. Further, the “haemolytic activity / toxicity, in words” value in series [11] is recorded as “relatively low levels of haemolysis”.

Turning to “MAAFMKLIQFLATKGQKYVSLAWKHKGTILKWINAGQ [SEQ ID NO:11]”, the MIC in series [6] is 12 µg/mL; in series [7], 8 µg/mL; in [8], 8 µg/mL; in series [9], 8 µg/mL.

Consider “SFKWPYKQIKKLWA [SEQ ID NO:22, SFKWPYKQIKKLWA]”, for which the MIC in series [1] (E. coli 178, Table 2) was 32 µg/mL; in series [1] (E. coli DH5α, Table 2), 10.7 µg/mL; in series [1] (E.coli 177, Table 2) it was 13.3 µg/mL; in series [3] it was 64 µg/mL; in series [4], 16 µg/mL; in series [5], over 64 µg/mL.

For the compound “KGTILKWINAGQSFEWIYKQIKKLWA [SEQ ID NO:17]”, the MIC was 16 µg/mL in series [6], 8 µg/mL in series [7] and 4 µg/mL in series [8].

As for “KLIQFLATKGQKYVSLAWKHKGTILKWINAGQSFEWIYKQIKK [SEQ ID NO:13]”, the MIC amounted to 16 µg/mL in series [6], 8 µg/mL in [7] and 8 µg/mL in series [8].

For the compound “KHKGTILKWINAGQSFEWIYKQIKKLWA [SEQ ID NO:16]”, the MIC stood at 4 µg/mL in [6], 8 µg/mL in series [7], 8 µg/mL in series [8] and 12 µg/mL in [12].

Consider “KGQKYVSLAWKHKGTILKWINAGQSFEWIYKQIKKLWA [SEQ ID NO:14]”, for which the MIC in [6] worked out at 6 µg/mL; in series [7], 8 µg/mL; in [8] it was 8 µg/mL; in series [9] it was 4 µg/mL.

On to “SFEWIYKQIWKLKRGLA [SEQ ID NO:3, SFEWIYKQIWKLKRGLA]”, for which the “Average MIC” value is 19 µg/mL in series [1] (E. coli 49); 11 µg/mL in series [1] (E. coli 50); 5 µg/mL in [1] (E. coli 177); 21 µg/mL in [1] (E. coli 178); 11 µg/mL in series [1] (E. coli 187); 9 µg/mL in series [1] (E. coli DH5a). The figures for the “Average MIC” value in series [2] and in series [4] were over 64 µg/mL and 13 µg/mL, respectively. For the same compound, the MIC in [1] (E. coli 50, Table 2) is 11 µg/mL; in series [1] (E. coli 178, Table 2), 21 µg/mL; in [1] (E. coli DH5α, Table 2), 9 µg/mL; in series [1] (E.coli 177, Table 2) it was 5 µg/mL; in series [2] it was over 64 µg/mL; in series [10], over 64 µg/mL. Moreover, the results for the MIC in [3] and in series [4] were over 64 µg/mL and 13 µg/mL, respectively. In [1] (summary of Table 2), the “activity against E coli strains tested, in words” value was “good activity”. The “antimicrobial activity against Gram positive and negative bacteria, in words” value in series [13] (listed as 3) is “significantly reduced activity”; in series [13] (listed as SEQ ID: No 3), “very low levels of activity”.

Regarding “SFEWIYKQIKKLWA [SEQ ID NO:12, SFEWIYKQIKKLWA]”, the MIC came to 4 µg/mL in [6]; 4 µg/mL in series [7]; 4 µg/mL in series [8]; 12 µg/mL in series [12]; 7 µg/mL in series [1] (E. coli 50, Table 2); 5 µg/mL in series [1] (E. coli 178, Table 2). Besides, the MIC worked out at 8 µg/mL in series [1] (E. coli DH5α, Table 2); 5 µg/mL in [1] (E.coli 177, Table 2); 10.6 µg/mL in series [10]; 64 µg/mL in [3]. For the same compound, the “Average MIC” value in series [1] (E. coli 49) worked out at 9 µg/mL; in series [1] (E. coli 50), 7 µg/mL; in series [1] (E. coli 177), 5 µg/mL; in series [1] (E. coli 178) it was 5 µg/mL; in [1] (E. coli 187), 5 µg/mL; in [1] (E. coli DH5a), 8 µg/mL. Moreover, the “Average MIC” value in series [4] is 4 µg/mL. Further, the “haemolytic activity / toxicity, in words” value in series [11] was “higher levels of haemolytic activity”.

For `CC[C@H](C)[C@H](NC(=O)[C@H](CCC(N)=O)NC(=O)[C@H](CCCCN)NC(=O)[C@H](Cc1ccc(O)cc1)NC(=O)[C@@H](NC(=O)[C@H](Cc1c[nH]c2ccccc12)NC(=O)[C@H](CCCCN)NC(=O)[C@H](Cc1ccccc1)NC(=O)[C@H](CO)NC=O)[C@@H](C)CC)C(=O)N[C@@H](CCCCN)C(=O)N[C@@H](CCCCN)C(=O)N[C@@H](CC(C)C)C(=O)N[C@@H](Cc1c[nH]c2ccccc12)C(=O)N[C@@H](C)C(=O)O` [SEQ ID NO:4, formyl-SFKWIYKQIKKLWA] (HELM PEPTIDE1{[O=C[*:2]].S.F.K.W.I.Y.K.Q.I.K.K.L.W.A}$$$$V2.0; C-terminus assumed), the MIC in [1] (E. coli 50, Table 2) was 2.3 µg/mL (≈ 1.23 µM); in series [1] (E. coli 178, Table 2) it was 1.3 µg/mL (≈ 0.696 µM); in series [1] (E. coli DH5α, Table 2) it was 1.5 µg/mL (≈ 0.803 µM); in series [1] (E.coli 177, Table 2), 2 µg/mL (≈ 1.07 µM); in [10] it was 6.7 µg/mL (≈ 3.59 µM); in series [3], 6.7 µg/mL (≈ 3.59 µM). For the same compound, the MIC in [4] turned out to be 1.7 µg/mL (≈ 0.91 µM). For the same compound, the “haemolytic activity / toxicity, in words” value in [11] was “higher levels of haemolytic activity”.

For the compound “SFEWIKYQIKKLWA [SEQ ID NO:2, SFEWIKYQIKKLWA]”, the “Average MIC” value in [1] (E. coli 49) turned out to be 24 µg/mL; in series [1] (E. coli 50) it was 27 µg/mL; in series [1] (E. coli 177), 19 µg/mL; in [1] (E. coli 178), 27 µg/mL; in [1] (E. coli 187), 17 µg/mL; in series [1] (E. coli DH5a), 17 µg/mL. Also, the “Average MIC” value in series [4] was 9 µg/mL. Besides, the MIC in series [1] (E. coli 50, Table 2) is 27 µg/mL; in series [1] (E. coli 178, Table 2), 27 µg/mL; in [1] (E. coli DH5α, Table 2), 17 µg/mL; in series [1] (E.coli 177, Table 2), 19 µg/mL; in series [10], 37.3 µg/mL; in series [3], over 64 µg/mL. This compound had an MIC in series [4] of 9 µg/mL. For the same compound, in series [13], the “antimicrobial activity against Gram positive and negative bacteria, in words” value is “significantly reduced activity”.

For the compound “SFKWIYKQPKKLWA [SEQ ID NO:21, SFKWIYKQPKKLWA]”, the MIC in [1] (E. coli 50, Table 2) was 64 µg/mL; in series [1] (E. coli 178, Table 2), 64 µg/mL; in [1] (E. coli DH5α, Table 2), 26.7 µg/mL; in [1] (E.coli 177, Table 2), 53.3 µg/mL; in [2], over 64 µg/mL; in series [3], over 64 µg/mL. The values for the MIC in [4] and in series [5] were 42.7 µg/mL and over 64 µg/mL, respectively.

In the case of “SFKWIYKQIKKLWA [SEQ ID NO:5, SFKWIYKQIKKLWA]”, the minimal inhibitory concentration (MIC) in series [1] (E. coli 50, Table 2) was 1.3 µg/mL; in series [1] (E. coli 178, Table 2), 1.3 µg/mL; in series [1] (E. coli DH5α, Table 2) it was 2 µg/mL; in series [1] (E.coli 177, Table 2) it was 2 µg/mL; in series [10], 4.7 µg/mL; in series [4] it was 1.2 µg/mL. In addition, the “haemolytic activity / toxicity, in words” value in series [11] is given as “higher levels of haemolytic activity”.
